Publication PMC8079033, “Design, synthesis, anticancer evaluation, and molecular modelling studies of novel tolmetin derivatives as potential VEGFR-2 inhibitors and apoptosis inducers” (Journal of Enzyme Inhibition and Medicinal Chemistry, 2021)

Key:
NCI-H226 = assay: NCI 60-cell line one-dose antiproliferative screen (SRB); format: cell-based; conditions: Homo sapiens, read-out: growth inhibition % (GI%)
Method: (§1) Anticancer activity screening of the newly synthesised compounds was measured in vitro utilising 60 different human tumour cell lines provided by US National Cancer Institute according to previously reported standard procedure[41–43] as follows: Cells are inoculated into 96-well microtiter plates in 100 ml. After cell inoculation, the microtiter plates are incubated at 37 °C, 5% CO2, 95% air, and 100% relative humidity for 24 h prior to addition of experimental compounds. After 24 h, two plates of each cell line are fixed in situ with TCA, to represent a measurement of the cell population for each cell line at the time of compound addition (Tz). Experimental compounds are solubilised in dimethyl sulfoxide at 400-fold the desired final maximum test concentration and stored frozen prior to use. At the time of compound addition, an aliquot of frozen concentrate is thawed and diluted to twice the desired final maximum test concentration with a complete medium containing […] gentamicin. Aliquots of […] of the compounds dilutions are added to the appropriate microtiter wells already containing 100 ml of medium, resulting in the required final compound concentration. Following compound addition, the plates are incubated for an additional 48 h at 37 °C, 5% CO2, 95% air, and 100% relative humidity. For adherent cells, the assay is terminated by the addition of cold trichloroacetic acid (TCA). Cells are fixed in situ by the gentle addition of 50 ml of cold 50% (w/v) TCA (final concentration, 10% TCA) and incubated for […] at 4 °C. The supernatant is discarded, and the plates are washed five times with tap water and air-dried. Sulforhodamine B (SRB) solution (100 ml) at 0.4% (w/v) in 1% acetic acid is added to each well, and plates are incubated for 10 min at room temperature. After staining, the unbound dye is removed by washing five times with 1% acetic acid and the plates are air-dried. The bound stain is subsequently solubilised with a 10 mM trizma base, and the absorbance is read on an automated plate reader at a wavelength of 515 nm. For suspension cells, the methodology is the same except that the assay is terminated by fixing settled cells at the bottom of the wells by gently adding 50 ml of 80% TCA (final concentration, 16% TCA). Using the absorbance measurements [time zero, (Tz), control growth, (C), and test growth in the presence of compound (Ti)], the percentage growth is calculated for each compound. The One-dose data are reported as a mean graph of the percent growth of treated cells. The reported number is growth relative to the no-compound control, and relative to the time zero number of cells. This allows the detection of both growth inhibition and lethality.
(§2) Fifteen newly synthesised compounds were tested for their in vitro antiproliferative activity by the National Cancer Institute (NCI), Maryland, USA[50], under the Developmental Therapeutic Program (DTP)[41]^,[43]^,[51]^,[52]. The tested compounds were evaluated at a concentration of 10 µM on a panel of 60 tumour cell lines representing leukaemia and non-small cell lung, colon, CNS, melanoma, ovarian, renal, prostate, and breast cancers. The antiproliferative activity was presented by the NCI as percent growth of the treated cells and is presented in Table 1 as growth inhibition percentage (GI%) achieved by the tested compounds.

UACC-257 = assay: as above; format: cell-based; conditions: Homo sapiens, read-out: growth inhibition % (GI%)
Method: as §1, §2

MCF7 = assay: as above; format: cell-based; conditions: Homo sapiens, read-out: growth inhibition % (GI%)
Method: as §1, §2

MDA-MB-231/ATCC = assay: as above; format: cell-based; conditions: Homo sapiens, read-out: growth inhibition % (GI%)
Method: as §1, §2

ACHN = assay: as above; format: cell-based; conditions: Homo sapiens, read-out: growth inhibition % (GI%)
Method: as §1, §2

SN 12 C = assay: as above; format: cell-based; conditions: Homo sapiens, SN12C, read-out: growth inhibition % (GI%)
Method: as §1, §2

SF-539 = assay: as above; format: cell-based; conditions: Homo sapiens, read-out: growth inhibition % (GI%)
Method: as §1, §2

MDA-MB-435 = assay: as above; format: cell-based; conditions: Homo sapiens, read-out: growth inhibition % (GI%)
Method: as §1, §2

OVCAR-5 = assay: as above; format: cell-based; conditions: Homo sapiens, read-out: growth inhibition % (GI%)
Method: as §1, §2

MDA-MB-468 = assay: as above; format: cell-based; conditions: Homo sapiens, read-out: growth inhibition % (GI%)
Method: as §1, §2

HOP-62 = assay: as above; format: cell-based; conditions: Homo sapiens, read-out: growth inhibition % (GI%)
Method: as §1, §2

UACC-62 = assay: as above; format: cell-based; conditions: Homo sapiens, read-out: growth inhibition % (GI%)
Method: as §1, §2

SW-620 = assay: as above; format: cell-based; conditions: Homo sapiens, read-out: growth inhibition % (GI%)
Method: as §1, §2

PC-3 = assay: as above; format: cell-based; conditions: Homo sapiens, read-out: growth inhibition % (GI%)
Method: as §1, §2

EKVX = assay: as above; format: cell-based; conditions: Homo sapiens, read-out: growth inhibition % (GI%)
Method: as §1, §2

UO-31 = assay: as above; format: cell-based; conditions: Homo sapiens, read-out: growth inhibition % (GI%)
Method: as §1, §2

U251 = assay: as above; format: cell-based; conditions: Homo sapiens, U-251, read-out: growth inhibition % (GI%)
Method: as §1, §2

HCC-2998 = assay: as above; format: cell-based; conditions: Homo sapiens, read-out: growth inhibition % (GI%)
Method: as §1, §2

HOP-92 = assay: as above; format: cell-based; conditions: Homo sapiens, read-out: growth inhibition % (GI%)
Method: as §1, §2

LOX IMVI = assay: as above; format: cell-based; conditions: Homo sapiens, read-out: growth inhibition % (GI%)
Method: as §1, §2

CAKI-1 = assay: as above; format: cell-based; conditions: Homo sapiens, read-out: growth inhibition % (GI%)
Method: as §1, §2

HCT-15 = assay: as above; format: cell-based; conditions: Homo sapiens, read-out: growth inhibition % (GI%)
Method: as §1, §2

SF-295 = assay: as above; format: cell-based; conditions: Homo sapiens, read-out: growth inhibition % (GI%)
Method: as §1, §2

SNB-75 = assay: as above; format: cell-based; conditions: Homo sapiens, read-out: growth inhibition % (GI%)
Method: as §1, §2

SK-MEL-5 = assay: as above; format: cell-based; conditions: Homo sapiens, read-out: growth inhibition % (GI%)
Method: as §1, §2

NCI-H522 = assay: as above; format: cell-based; conditions: Homo sapiens, read-out: growth inhibition % (GI%)
Method: as §1, §2

NCI-H23 = assay: as above; format: cell-based; conditions: Homo sapiens, read-out: growth inhibition % (GI%)
Method: as §1, §2

IGROV1 = assay: as above; format: cell-based; conditions: Homo sapiens, IGROV-1, read-out: growth inhibition % (GI%)
Method: as §1, §2

SF-268 = assay: as above; format: cell-based; conditions: Homo sapiens, read-out: growth inhibition % (GI%)
Method: as §1, §2

OVCAR-8 = assay: as above; format: cell-based; conditions: Homo sapiens, read-out: growth inhibition % (GI%)
Method: as §1, §2

melting point: 193 to 195 °C
SMILES: Cc1ccc(C(=O)c2ccc(CC(=O)NN=C3C(=O)Nc4ccccc43)n2C)cc1 [Compound 6a, 2–(1-Methyl-5–(4-methylbenzoyl)-1H-pyrrol-2-yl)-N′-(2-oxoindolin-3-ylidene) acetohydrazide]
inhibition at 10 µM (NCI-H226): < 10%
inhibition at 10 µM (UACC-257): < 10%
inhibition at 10 µM (MCF7): < 10%
inhibition at 10 µM (MDA-MB-231/ATCC): 11.4%
inhibition at 10 µM (ACHN): < 10%
inhibition at 10 µM (SN 12 C): < 10%
inhibition at 10 µM (SF-539): < 10%
inhibition at 10 µM (MDA-MB-435): < 10%
inhibition at 10 µM (OVCAR-5): < 10%
inhibition at 10 µM (MDA-MB-468): 10.5%
inhibition at 10 µM (HOP-62): < 10%
inhibition at 10 µM (UACC-62): < 10%
inhibition at 10 µM (SW-620): < 10%
inhibition at 10 µM (PC-3): < 10%
inhibition at 10 µM (EKVX): < 10%
inhibition at 10 µM (UO-31): 25.7%
inhibition at 10 µM (U251): < 10%
inhibition at 10 µM (HCC-2998): < 10%
inhibition at 10 µM (HOP-92): 11.1%
inhibition at 10 µM (LOX IMVI): < 10%
inhibition at 10 µM (CAKI-1): 12.3%
inhibition at 10 µM (HCT-15): < 10%
inhibition at 10 µM (SF-295): < 10%
inhibition at 10 µM (SNB-75): 29.6%
inhibition at 10 µM (SK-MEL-5): < 10%
inhibition at 10 µM (NCI-H522): < 10%
inhibition at 10 µM (NCI-H23): < 10%
inhibition at 10 µM (IGROV1): < 10%
inhibition at 10 µM (SF-268): < 10%
inhibition at 10 µM (OVCAR-8): < 10%
